In US20150133497A1, “GLYCINE REUPTAKE INHIBITOR AND USE THEREOF” (Beijing Medisan Technology Co., Ltd., priority 2011, published 2015):

Key:
[1] = test system: high-activity behaviors in rats induced by PCP; test: Effect on high-activity behaviors in rats induced by PCP; type: in vivo, Wistar rats; conditions: for inhibition of high-activity behaviors in rats induced by PCP: Co. 1 5, 10 and 30 mg/kg i.p., Olanzepine 10 mg/kg i.p., PCP 5.0 mg/kg s.c., P<0.01 vs PCP group
Procedure: (§1) Animals used for experiments were adult male Wistar rats weighing 180˜250 g, housed in group of 6/cages, regulated with a 12/12 hour light/dark cycle, maintained at a constant temperature of 23±1° C. and a humidity of 50˜60% and allowed ad libitum access to rodent chow and water. After animals were purchased from the Experimental Animal Center, an adaptive housing was performed for a week, all the animals were randomly divided into three groups:
Group 1: negative control group, intraperitoneally injected with 1% DMSO in physiological saline (10.0 ml/kg, i.p.);
Group 2: experimental drug group, the rats were intraperitoneally injected respectively with different doses of test compound Co. 1: 5.0, 10 and 30 mg/kg, i.p., the drug was formulated in 1% DMSO in physiological saline.
Group 3: positive drug control group, the rats were intraperitoneally injected with Olanzepine (10 mg/kg, i.p., the drug was formulated in 1% DMSO in physiological saline)
The experiment employed Shanghai Jiliang animal behavior video analysis system, wherein the experimental environment was kept absolutely silent, when grabbing animals and administrating, movements were gentle to minimize adverse reactions of mental condition and emotion brought by external stimulus. The rats were moved from the animal room to a quiet lab and adapted for at least two hours. Subcutaneous injection of PCP (5.0 mg/kg, s.c.), or 1% DMSO in physiological saline as control, was administrated. 30 minutes later, the animals were intraperitoneally injected with the test compound, or 1% DMSO in physiological saline as control. The rats were placed in a spontaneous activity box, which was placed in an absolutely silent environment. The spontaneous activity box was connected to a recording apparatus and the activity conditions of rats were recorded for 30-60 minutes. The effect of drug or control on spontaneous activity in […] was determined.

[2] = test system: spontaneous activity in rats; test: Effect of test compound on spontaneous activity in rats (LMA); type: in vivo, Wistar rats; conditions: 5.0, 10 and 30 mg/kg i.p.; 60 minutes after administration; recorded 30-60 minutes; P>0.05, Dunnett's test
Procedure: Animals used for experiments were adult male Wistar rats weighing 180˜250 g, housed in groups of 6/cages, regulated with a 12/12 hour light/dark cycle, maintained at a constant temperature of 23±1° C. and a humidity of 50˜60% and allowed ad libitum access to rodent chow and water. After animals were purchased from the Experimental Animal Center, an adaptive housing was performed for a week, all the animals were randomly divided into two groups:
(§2) Group one: negative control group, intraperitoneally injected with 1% DMSO in physiological saline (10.0 ml/kg, i.p.);
Group two: experimental drug group, the rats were intraperitoneally injected respectively with different doses of test compound Co. 1: 5.0, 10 and 30 mg/kg, i.p., the drug was formulated in 1% DMSO in physiological saline.
The experiment employed Shanghai Jiliang animal behavior video analysis system, wherein the experimental environment was kept absolutely silent, when grabbing animals and administrating, movements were gentle to minimize adverse reactions of mental condition and emotion brought by external stimulus. […] The spontaneous activity box was connected to a recording apparatus and the activity conditions of rats were recorded for 30-60 minutes. The effect of drug or control on spontaneous activity in rats was determined.

[3] = test system: high-activity behaviors in rats induced by Amphetamine; test: Effect on high-activity behaviors in rats induced by Amphetamine; type: in vivo, Wistar rats; conditions: for inhibition of high-activity behaviors in rats induced by Amphetamine: Co. 1 5, 10 and 30 mg/kg i.p., Olanzepine 10 mg/kg i.p., Amphetamine 1.0 mg/kg s.c., P<0.01 vs Amphetamine group
Procedure: as §1, §2
Group two: experimental drug group, the rats were intraperitoneally injected respectively with different amounts of test compound Co. 1: 5, 10 and 30 mg/kg, i.p., the drug was formulated in 1% DMSO in physiological saline.
Group three: positive drug control group, the rats were intraperitoneally injected with Olanzepine (10 mg/kg, i.p., the drug was formulated in 1% DMSO in physiological saline)
The experiment employed Shanghai Jiliang animal behavior video analysis system, wherein the experimental environment was kept absolutely silent, when grabbing animals and administrating, movements were gentle to minimize adverse reactions of mental condition and emotion brought by external stimulus. The rats were moved from the animal room to a quiet lab and adapted for at least two hours. Subcutaneous injection of Amphetamine (1.0 mg/kg, s.c.), or 1% DMSO in physiological saline as control, was administrated. 30 minutes later, the animals were orally administrated of the compound, or physiological saline as control. The rats were placed in a spontaneous activity box, which was placed in an absolutely silent environment. The spontaneous activity box was connected to a recording apparatus and the activity conditions of rats were recorded for 30-60 minutes. The effect of drug or control on spontaneous activity in rats was determined.

GlyT1 = target: T1, GlyT1 (Homo sapiens, UniProt P48067); test: Anti-glycine reuptake activity, GlyT1; type: cell-based; conditions: listed as head criterion > 6; mean of three experiments; read-out: GlyT1 pEC50 (converted)
T1 sequence (P48067 1-706): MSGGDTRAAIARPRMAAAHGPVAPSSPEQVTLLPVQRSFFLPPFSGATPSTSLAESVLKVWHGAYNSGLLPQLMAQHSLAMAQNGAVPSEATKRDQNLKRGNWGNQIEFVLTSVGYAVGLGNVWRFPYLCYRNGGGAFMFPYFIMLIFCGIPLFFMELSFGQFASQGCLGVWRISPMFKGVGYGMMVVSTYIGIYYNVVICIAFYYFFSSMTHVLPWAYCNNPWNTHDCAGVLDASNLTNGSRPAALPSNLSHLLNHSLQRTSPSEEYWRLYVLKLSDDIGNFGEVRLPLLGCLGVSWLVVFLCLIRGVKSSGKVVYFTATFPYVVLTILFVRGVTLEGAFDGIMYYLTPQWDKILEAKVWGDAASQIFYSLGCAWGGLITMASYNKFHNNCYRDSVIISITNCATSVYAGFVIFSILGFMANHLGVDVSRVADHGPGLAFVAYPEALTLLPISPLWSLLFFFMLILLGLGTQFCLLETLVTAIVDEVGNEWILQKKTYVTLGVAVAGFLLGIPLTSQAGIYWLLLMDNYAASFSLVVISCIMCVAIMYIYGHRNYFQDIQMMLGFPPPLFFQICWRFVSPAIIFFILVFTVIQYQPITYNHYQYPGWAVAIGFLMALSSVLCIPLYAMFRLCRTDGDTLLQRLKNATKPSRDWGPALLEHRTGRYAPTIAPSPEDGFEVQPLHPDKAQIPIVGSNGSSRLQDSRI
Description: (§3) methods commonly used in the art were employed to determine the anti-glycine reuptake activity of the compound of the present invention. The experiment was repeated for three times and the mean value was taken.

Rat PK = type: in vivo
G1yT2 = target: T2, G1yT2 (Homo sapiens, UniProt Q9Y345); test: Selectivity vs GlyT2; type: cell-based; conditions: listed as head criterion >10 × vs G1yT2
T2 sequence (Q9Y345 1-797): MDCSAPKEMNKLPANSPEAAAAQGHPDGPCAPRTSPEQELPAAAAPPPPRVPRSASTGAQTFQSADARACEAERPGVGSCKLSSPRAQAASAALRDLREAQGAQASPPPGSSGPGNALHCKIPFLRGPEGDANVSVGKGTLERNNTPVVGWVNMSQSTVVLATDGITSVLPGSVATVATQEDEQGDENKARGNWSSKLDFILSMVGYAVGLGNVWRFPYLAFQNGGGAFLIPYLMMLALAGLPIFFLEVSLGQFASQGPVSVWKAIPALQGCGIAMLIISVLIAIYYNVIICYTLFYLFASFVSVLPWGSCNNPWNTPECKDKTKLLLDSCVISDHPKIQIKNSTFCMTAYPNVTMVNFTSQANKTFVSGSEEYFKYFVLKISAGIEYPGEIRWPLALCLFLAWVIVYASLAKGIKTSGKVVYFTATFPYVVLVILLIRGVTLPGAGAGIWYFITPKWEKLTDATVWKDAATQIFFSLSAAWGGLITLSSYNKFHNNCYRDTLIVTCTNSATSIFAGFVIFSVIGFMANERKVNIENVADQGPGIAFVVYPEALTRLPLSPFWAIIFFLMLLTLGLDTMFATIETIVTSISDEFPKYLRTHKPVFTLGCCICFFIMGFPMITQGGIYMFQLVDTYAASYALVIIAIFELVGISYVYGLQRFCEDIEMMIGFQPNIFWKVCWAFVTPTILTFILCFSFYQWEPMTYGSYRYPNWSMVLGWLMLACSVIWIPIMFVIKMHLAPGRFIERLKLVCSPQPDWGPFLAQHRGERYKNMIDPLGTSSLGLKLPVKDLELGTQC
Description: as §3

Cmax in rat CSF = type: in vivo; conditions: sc, 10 mg/kg s.c.
[4] = Measured Clint, R-heps (hepatocytes); type: in vitro ADME, rat
in vitro = in vitro ADME; conditions: microsomes
Description: as §3

hERG = hERG (Homo sapiens, UniProt Q12809); test: hERG (pKi); type: binding
Sequence of hERG (Q12809 whole entry): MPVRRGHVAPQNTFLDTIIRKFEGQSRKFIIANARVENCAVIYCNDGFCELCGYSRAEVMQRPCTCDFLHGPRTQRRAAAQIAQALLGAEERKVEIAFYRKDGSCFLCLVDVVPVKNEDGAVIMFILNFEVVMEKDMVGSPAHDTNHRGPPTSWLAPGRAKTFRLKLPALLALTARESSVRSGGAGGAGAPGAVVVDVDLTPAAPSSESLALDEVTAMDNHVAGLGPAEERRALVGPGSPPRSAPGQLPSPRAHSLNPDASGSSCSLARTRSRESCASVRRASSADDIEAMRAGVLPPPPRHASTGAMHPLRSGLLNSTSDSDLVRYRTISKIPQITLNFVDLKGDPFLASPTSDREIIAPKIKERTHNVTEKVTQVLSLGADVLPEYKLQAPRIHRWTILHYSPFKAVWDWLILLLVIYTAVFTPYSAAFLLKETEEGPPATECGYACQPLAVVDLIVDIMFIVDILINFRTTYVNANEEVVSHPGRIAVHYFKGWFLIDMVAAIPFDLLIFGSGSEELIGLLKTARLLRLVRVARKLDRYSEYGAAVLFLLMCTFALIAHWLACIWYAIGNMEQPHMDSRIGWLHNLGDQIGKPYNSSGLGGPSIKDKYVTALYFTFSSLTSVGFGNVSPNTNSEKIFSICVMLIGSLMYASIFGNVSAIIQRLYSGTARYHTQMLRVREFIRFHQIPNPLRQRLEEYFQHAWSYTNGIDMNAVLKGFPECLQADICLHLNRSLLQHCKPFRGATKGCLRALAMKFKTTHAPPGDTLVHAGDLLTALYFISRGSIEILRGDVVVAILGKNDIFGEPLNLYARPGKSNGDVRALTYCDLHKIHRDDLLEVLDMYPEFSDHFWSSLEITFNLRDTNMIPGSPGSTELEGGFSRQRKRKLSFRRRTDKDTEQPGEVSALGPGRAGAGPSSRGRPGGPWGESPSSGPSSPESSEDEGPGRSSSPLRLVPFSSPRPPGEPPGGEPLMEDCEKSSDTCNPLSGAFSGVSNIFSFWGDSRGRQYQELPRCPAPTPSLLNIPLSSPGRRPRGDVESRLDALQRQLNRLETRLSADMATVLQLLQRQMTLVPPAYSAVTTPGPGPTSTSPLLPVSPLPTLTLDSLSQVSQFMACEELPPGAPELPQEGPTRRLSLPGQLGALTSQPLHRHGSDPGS

NET = NET (Homo sapiens, UniProt P23975); test: Selectivity, NET; type: cell-based; conditions: read-out: Selectivity NET pEC50 (converted)
Sequence of NET (P23975 whole entry): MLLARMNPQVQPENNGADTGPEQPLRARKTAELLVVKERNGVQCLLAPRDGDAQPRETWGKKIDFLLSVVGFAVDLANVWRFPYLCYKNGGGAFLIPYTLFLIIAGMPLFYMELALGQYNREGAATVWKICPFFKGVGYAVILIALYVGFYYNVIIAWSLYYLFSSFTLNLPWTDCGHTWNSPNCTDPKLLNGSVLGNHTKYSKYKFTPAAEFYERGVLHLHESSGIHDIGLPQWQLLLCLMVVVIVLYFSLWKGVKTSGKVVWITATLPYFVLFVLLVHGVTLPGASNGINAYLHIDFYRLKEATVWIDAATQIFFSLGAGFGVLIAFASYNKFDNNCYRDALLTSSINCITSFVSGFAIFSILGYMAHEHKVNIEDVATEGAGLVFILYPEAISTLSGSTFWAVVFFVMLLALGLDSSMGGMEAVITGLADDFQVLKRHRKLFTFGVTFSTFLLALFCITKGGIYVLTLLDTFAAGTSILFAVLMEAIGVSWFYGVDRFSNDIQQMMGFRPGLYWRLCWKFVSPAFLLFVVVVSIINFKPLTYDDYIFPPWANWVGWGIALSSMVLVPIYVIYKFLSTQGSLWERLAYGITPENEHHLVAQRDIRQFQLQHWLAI

| Compound | inhibition of high-activity behaviors in rats induced by PCP [1] | inhibitory effect on PCP-induced high-activity behaviors compared with the positive drug Olanzepine ([1]; P<0.05, Dunnett's test, compared with the Olanzepine/PCP group) | effect on spontaneous activity in rats [2] | inhibition of high-activity behaviors in rats induced by Amphetamine [3] | inhibitory effect on Amphetamine-induced high-activity behaviors compared with the positive drug Olanzepine ([3]; P<0.05, Dunnett's test, compared with the Olanzepine/Amphetamine group) | EC50 (GlyT1) [nM] | Rat PK C1 (Rat PK) [mL/min/kg] | Rat PK P (Rat PK) [%] | G1yT2 effect at 10-5 M (G1yT2) [% @ 10-5 M] | Cmax (Cmax in rat CSF) [nM] | Measured Clint R-heps [4] | microsomal CLint (in vitro; human) [µL/min/mg] | microsomal CLint (in vitro; rat) [µL/min/mg] | Ki (hERG) [µM] | EC50 (NET) [nM] |
| --- | --- | --- | --- | --- | --- | --- | --- | --- | --- | --- | --- | --- | --- | --- | --- |
| Cc1cc(C(=O)N[C@@H](CN2CCCCC2)C(C)C)cc(-c2ccccc2C(F)(F)F)n1 [Co. 1] | significantly inhibited | stronger | no significant effect | significantly inhibited | stronger |  |  |  |  |  |  |  |  |  |  |
| CCC(C)[C@@H](CN1CCCCC1)NC(=O)c1cc(C)nc(-c2cc(C)ccc2C(F)(F)F)c1 (some centres unmarked) [Co. 2] |  |  |  |  |  | 63.1 | 52 | < 1 | 14 | 60 | R-heps 15 ul/ml/106 cells | 135 | 81 | 12.6 | 316 |
| Cc1cc2c(s1)Nc1ccccc1N=C2N1CCN(C)CC1 [Olanzepine, reference compound] | significantly inhibited |  |  | significantly inhibited |  |  |  |  |  |  |  |  |  |  |  |
